From US8937050B2, “Methods and compositions for treatment of autism” (The Johns Hopkins University, priority 2011, dated 2015)

Legend:
[1] = test system: ALD (Abcd1−/Y) mouse model; conditions: ALD (Abcd1−/Y) mouse model in vivo; McGuinness et al., 2003; cited from earlier work
Sickle Cell Disease = conditions: Hsiao et al., 2006; cited from earlier work
[2] = test system: class I and class II HDAC; assay: Colorimetric HDAC activity assay in HeLa or fibroblast lysates; format: biochemical; conditions: HeLa and human fibroblast lysates; two concentrations (treatment concentration and ten times); FIG. 6A-B
Protocol: A colorimetric HDAC activity assay was performed in triplicate using 100-200 μg of HeLa or fibroblast lysates following the manufacturer's protocol (K331; Biovision, Mountain View, Calif.).
Whether inhibition of class I and class II HDAC activities is a shared biochemical function that could account for the effects of all four small molecules was examined. Using lysates from HeLa cells and primary human fibroblasts, an in vitro colorimetric assay of HDAC activity was performed. Two concentrations of each small molecule were used. The first concentration was that used to treat primary human fibroblasts in the experiments reported herein, which minimally affects growth. The second concentration was ten times the first concentration and is lethal in cell culture. […] (* p≦0.00009; paired t-test; Bars=SEM for n≧3 independent experiments).

[3] = test system: X-linked Adrenoleukodystrophy; conditions: McGuiness et al., 2003; cited from earlier work
Cystic Fibrosis = conditions: Choo-Kang et al., 2001, Hutt et al., 2010; cited from earlier work
SIRT1 = SIRT1 protein expression in normal human fibroblasts; format: cell-based
human XALD fibroblasts = conditions: McGuinness et al., 2003; cited from earlier work
normal human fibroblasts = assay: Quantitative in-cell western analysis with anti-ATP5B; format: cell-based; conditions: six days, FIG. 2B
Protocol: The immunostaining of primary human fibroblasts with anti-ATP5B, DRAQ5 (Cell Signaling Technologies, Danvers, Mass.; a cellular DNA stain to normalize cell number), and secondary antibody IRDye 800CW donkey anti-mouse IgG (Li-cor Biosciences, Lincoln, Nebr.) was identical to the indirect immunofluorescence procedure described above and performed in duplicate. Imaging and quantification were performed using the Odyssey Imager (L1-cor Biosciences).
In FIGS. 2A-B, the JNK inhibitor SP600125 (10 μM+inh) was utilized. […] Normal human fibroblasts were treated with each of the small four molecules with or without SP600125 for six days. Quantitative in-cell western analyses were performed using anti-ATP5B.

[4] = test system: BIP, phosphorylated eIF2α, XBP1; assay: Immunoblot analyses of UPR protein expression and XBP1 splicing; format: cell-based, human
Protocol: (§1) Cell lysates were collected in mammalian protein extraction reagent (m-PER; Thermo Scientific, Rockford, Ill.) plus 1×protease inhibitor (Sigma-Aldrich) and 1×Halt phosphatase inhibitor (Thermo Scientific). Denatured SDS-PAGE and immunoblot analyses were performed using the following antibodies: phosphorylated JNK and β-actin from Santa Cruz Biotechnology, HSP70, HSP90, BIP, phosphorylated eIF2α, and XBP1 from Cell Signaling, APG8 (Abgent, San Diego, Calif.), and SOD2 (Stressgen, Ann Arbor, Mich.). Quantitation was performed using a Fuji Intelligent Dark box II, FUJI LAS-1000 Lite software and Image Gauge v4.22 software (Tokyo, Japan).
(§2) Expression of key components of the HSR, UPR, the autophagic response, and the antioxidant response were monitored at the transcriptional, translational, and/or post-translational level. These responses are known to be transiently activated in response to various cellular stressors. The degree of induction of each component can vary depending on the metabolic state of the cell (e.g., confluency, cell passage number) (Kultz 2003; Lallemand et al., 1998; Westerheide et al., 2009). Due to the transient nature of these responses, several components of each pathway were monitored at various time points within a 24 hour treatment. At least two normal human fibroblast lines were tested in three or more independent experiments. […] The average of the maximal increase in protein expression within a 24 hour time frame was also compared to the untreated sample. Activation of each pathway was assessed by an increase in one or more components of each pathway.
(§3) UPR markers evaluated included the central UPR regulator glucose regulated protein 78 (BIP) and other components that are stimulated after the activation of the three ER transmembrane receptors: PKR-like ER kinase (PERK), inositol requiring 1 (IRE1), and activating transcription factor 6 (Fedoroff 2006). […] 2 alpha (eIF2a) is phosphorylated by PERK, attenuates general translation, and induces activating transcription factor 4 (ATF4). CHOP promotes reactivation of PERK. XBP1 mRNA is non-conventionally spliced by the endonuclease activity of IRE1 upon UPR activation.
(§4) Normal human fibroblasts were treated with drugs as indicated. The expression of the UPR genes ATF4, CHOP, and BIP was measured as described in FIG. 2E. […] Normal human fibroblasts were treated at various time points and the average of the maximum protein expression of BIP (78 kDa) and phosphorylated eIF2α (38 kDa) is plotted as in FIG. 2F. Actin (43 kDa) was used as a loading control and is the same blot as FIG. 2F. UT denotes untreated cells. M denotes marker lane. […] Normal human fibroblasts were treated. The expression of the unspliced form (XBP1-us; 33 kDa) and the activated and spliced form of XBP1 (XBP1-s; 54 kDa) was analyzed by immunoblotting. BP1-s is a larger protein than XBP1-us due to non-canonical mRNA splicing which results in a larger carboxy-terminal domain. […] The average of the maximum expression of XBP1-s (within 24 hrs.) is plotted as in FIG. 2F. Actin was used as a loading control.

Spinal Muscular Atrophy = conditions: Lunn et al., 2008; cited from earlier work
ATF4, CHOP, and BIP = assay: RT-PCR of unfolded protein response (UPR) genes; format: cell-based, human; conditions: for BIP expression at the transcriptional level: normal human fibroblasts, FIG. 4A
Protocol: Following the manufacturer's protocols, DNase I-treated cDNA was synthesized using Superscript III or Thermoscript reverse transcriptase (Invitrogen). PCR reactions were performed in duplicate on the Roche Lightcycler 3.5 (Basel, Switzerland) or the Bio-Rad iCycler (Hercules, Calif.) using Quantitech SYBR green PCR mix (Qiagen, Valencia, Calif.). GeNorm software calculated a normalization factor for each sample using the relative amounts of at least two of the following reference genes, β2-microglobulin, […], actin, and/or eukaryotic elongation factor 1A (Vandesompele et al., 2002). Primers for the various experiments described herein are listed below.
as §2, §3, §4

Ischemia = conditions: Qi et al., 2004, Yoon et al., 2008; cited from earlier work
SMN protein = assay: Immunoblot analyses of SMN protein expression in spinal muscular atrophy fibroblasts; format: cell-based, human
Protocol: as §1
Spinal muscular atrophy type I (SMA I; GM09677, n=7) or type III (SMA III; 2906, n=2) fibroblasts were treated with either 1.5 mM SFN or 0.5-2 mM SFN, respectively, for 48-72 hr. The average of the relative expression of SMN protein (39 kDa) is plotted. Actin (43 kDa) was used as a loading control.
Spinal muscular atrophy type I (SMA I; GM09677) fibroblasts were treated with either […] HU (n=1) or 1.5 mM SFN (n≧3) in the presence or absence of 10 mM SP600125 (JNK inhibitor), 1 mM 3-methyladenine (APG inhibitor), 2-4 mg/ml antimycin A (MITO inhibitor) or 2 mM sirtinol (SIRT1 inhibitor) for 48 h. SMN protein expression was measured by quantitative immunoblot analyses using actin as a loading control. Fold increases in SMN protein expression are plotted and represented numerically in the table below the graph. Untreated values are normalized to 1. (*P≦0.05; bars=SEM).

[5] = normal human fibroblasts, FIG. 4B
[6] = separate experiments, SMA I GM09677, 300 mM HU or 1.5 mM SFN, 48 h, FIG. 8D

Compound: CC(/C=C/C(=O)NO)=C\[C@@H](C)C(=O)c1ccc(N(C)C)cc1 [TSA, trichostatin A]
- abnormally high levels of very long chain fatty acids (VLCFA) [1]: normalized
- Therapeutic Effect (Sickle Cell Disease): increase F-cell production
- HDAC activity compared to untreated lysates [2]: significantly decreased
- Therapeutic Effect [3]: decrease very long chain
- Therapeutic Effect (Cystic Fibrosis): increase proper protein
- SIRT1 protein expression (SIRT1): no marked changes
- abnormally high levels of very long chain fatty acids (VLCFA) (human XALD fibroblasts): normalized
- mitochondrial mass (ATP5B) compared to untreated cells (normal human fibroblasts): 2.5 fold
- BIP expression at the translational level [4, 5]: significantly increased
- Therapeutic Effect (Spinal Muscular Atrophy): increase percentage of full
- BIP expression at the transcriptional level (ATF4, CHOP, and BIP): significantly increased

Compound: 4-phenylbutyrate [4PBA]
- abnormally high levels of very long chain fatty acids (VLCFA) [1]: normalized
- Therapeutic Effect (Sickle Cell Disease): increase F-cell production
- HDAC activity compared to untreated lysates [2]: significantly decreased
- Therapeutic Effect [3]: decrease very long chain
- Therapeutic Effect (Ischemia): protection via antioxidant
- Therapeutic Effect (Cystic Fibrosis): increase proper protein
- SIRT1 protein expression (SIRT1): no marked changes
- abnormally high levels of very long chain fatty acids (VLCFA) (human XALD fibroblasts): normalized
- mitochondrial mass (ATP5B) compared to untreated cells (normal human fibroblasts): 2.4 fold
- BIP expression at the translational level [4, 5]: significantly increased
- Therapeutic Effect (Spinal Muscular Atrophy): increase percentage of full
- BIP expression at the transcriptional level (ATF4, CHOP, and BIP): significantly increased

Compound: C[S@@+]([O-])CCCCN=C=S [SFN, 1-isothiocyanato-4R-(methylsulfinyl)butane]
- HDAC activity compared to untreated lysates [2]: neither concentration of HU nor SFN reduced
- Therapeutic Effect (Ischemia): protection via antioxidant
- SIRT1 protein expression (SIRT1): no marked changes
- mitochondrial mass (ATP5B) compared to untreated cells (normal human fibroblasts): 2.2 fold
- BIP increase at the translational level ([4]; in vitro sulforaphane studies): 2-3 fold
- amount of spliced XBP1 protein increase ([4]; in vitro sulforaphane studies): 3-4
- total amount of XBP1 protein increase ([4]; in vitro sulforaphane studies): 3-4
- BIP expression at the translational level [4, 5]: significantly increased
- eIF2α phosphorylation [4, 5]: modestly increased
- pro-survival capabilities of all three UPR branches ([4]; transcriptional, post-transcriptional, translational and post-translational levels): activated
- ATF4 mRNA expression increase (ATF4, CHOP, and BIP; in vitro sulforaphane studies): 4-5 fold
- BIP increase at the transcriptional level (ATF4, CHOP, and BIP; in vitro sulforaphane studies): 2-3 fold
- CHOP mRNA expression increase (ATF4, CHOP, and BIP; in vitro sulforaphane studies): 4-5 fold
- BIP expression at the transcriptional level (ATF4, CHOP, and BIP): significantly increased
- SMN protein expression increase (SMN protein; [6]): 1.46 fold
- SMN protein expression increase (SMN protein; spinal muscular atrophy type I fibroblasts (GM09677), 1.5 mM SFN, 48-72 hr., FIG. 8C): 1.57 fold
- SMN protein expression increase (SMN protein; spinal muscular atrophy type III fibroblasts (2906), 0.5-2 mM SFN, 48-72 hr., FIG. 8C): 1.64 fold

Compound: NC(=O)NO [HU, hydroxyurea]
- Therapeutic Effect (Sickle Cell Disease): increase F-cell production
- HDAC activity compared to untreated lysates [2]: neither concentration of HU nor SFN reduced
- SIRT1 protein expression (SIRT1): no marked changes
- mitochondrial mass (ATP5B) compared to untreated cells (normal human fibroblasts): 1.8 fold
- BIP expression at the translational level [4, 5]: significantly increased
- Therapeutic Effect (Spinal Muscular Atrophy): increase percentage of full
- BIP expression at the transcriptional level (ATF4, CHOP, and BIP): significantly increased
- SMN protein expression increase (SMN protein; [6]): 1.4 fold
